The structures appear in SMILES notation. Read-outs that look alike come from different tables or passages of the source.

For series [1], the system named is Recombinant Respiratory Syncytial virus strain A2 containing the firefly luciferase reporter (RSV-Fluc). The series is described as follows: microbe, parasite or virus in culture. It counts as cell-based. The note with it: human respiratory syncytial virus, NHBE.
In another series the test system is SARS-CoV-2. In words: microbe, parasite or virus in culture. It counts as cell-based. The note with it: Severe acute respiratory syndrome coronavirus 2, read-out: SARS EC50.
Another series can be described thus: MT4 cytotoxicity (CC50). The note with it: human, MT4 cells, MT4 CC50, Table 2a.
[2] abbreviates: 72 h, read-out: RSV-Fluc EC50 (NHBE), NHBE cells, three days, Table 2.

Broadly, the EC50 is the concentration giving half of the maximal effect. What is called CC50 is the concentration that lowers cell viability or growth by half. In the case of `CCCCCCCCCCCCCCCCCCOC[C@H](COP(=O)(O)OC[C@H]1O[C@@](C#N)(c2ccc3c(N)ncnn23)[C@H](O)[C@@H]1O)Oc1cc(F)cc(C#N)c1` [Example 31, ((2R,3S,4R,5R)-5-(4-aminopyrrolo[2,1-f][1,2,4]triazin-7-yl)-5-cyano-3,4-dihydroxytetrahydrofuran-2-yl)methyl ((R)-2-(3-cyano-5-fluorophenoxy)-3-(octadecyloxy)propyl) hydrogen phosphate], the EC50 in series [1] (read-out: RSV EC50, Table 2a) was found to be 21 nM; in the series with SARS-CoV-2, 86 nM. In the series “MT4 cytotoxicity (CC50)”, this compound showed a CC50 of 195 nM.

For the compound `CCCCCCCCCCCCCCCCCCOC[C@H](COP(=O)(O)OC[C@H]1O[C@@](C#N)(c2ccc3c(N)ncnn23)[C@H](O)[C@@H]1O)OCc1cccc(C(F)F)c1` [Example 32, ((2R,3S,4R,5R)-5-(4-aminopyrrolo[2,1-f][1,2,4]triazin-7-yl)-5-cyano-3,4-dihydroxytetrahydrofuran-2-yl)methyl ((R)-2-((3-(difluoromethyl)benzyl)oxy)-3-(octadecyloxy)propyl) hydrogen phosphate], the EC50 in series [1] (read-out: RSV EC50, Table 2a) amounted to 64 nM; in the series on SARS-CoV-2, 3040 nM. In “MT4 cytotoxicity (CC50)”, this compound came in with a CC50 of 2660 nM.

On to `CCCCCCCCCCCCCCCCCCOC[C@H](COP(=O)(O)OC[C@H]1O[C@@](C#N)(c2ccc3c(N)ncnn23)[C@H](O)[C@@H]1O)OCc1ccc(C(F)F)cc1` [Example 33, ((2R,3S,4R,5R)-5-(4-aminopyrrolo[2,1-f][1,2,4]triazin-7-yl)-5-cyano-3,4-dihydroxytetrahydrofuran-2-yl)methyl ((R)-2-((4-(difluoromethyl)benzyl)oxy)-3-(octadecyloxy)propyl) hydrogen phosphate], for which the EC50 in series [1] (read-out: RSV EC50, Table 2a) was determined as 77 nM; in the series on SARS-CoV-2 it was 3020 nM. In the series “MT4 cytotoxicity (CC50)”, the CC50 turned out to be 8850 nM.

Take `CCCCCCCCCCCCCCCCCOC[C@H](COP(=O)(O)OC[C@H]1O[C@@](C#N)(c2ccc3c(N)ncnn23)[C@H](O)[C@@H]1O)OCc1cccc(C#N)c1` [Example 34, ((2R,3S,4R,5R)-5-(4-aminopyrrolo[2,1-f][1,2,4]triazin-7-yl)-5-cyano-3,4-dihydroxytetrahydrofuran-2-yl)methyl ((R)-2-((3-cyanobenzyl)oxy)-3-(heptadecyloxy)propyl) hydrogen phosphate]: the 50% effective concentration (EC50) in series [1] (read-out: RSV EC50, Table 2a) was 25 nM; in the series with SARS-CoV-2 it was 582 nM. Moreover, in the series “MT4 cytotoxicity (CC50)”, the CC50 was 550 nM.

For the compound `CCCCCCCCCCCCCCCCCOC[C@H](COP(=O)(O)OC[C@H]1O[C@@](C#N)(c2ccc3c(N)ncnn23)[C@H](O)[C@@H]1O)OCc1cc(F)cc(C#N)c1` [Example 35, ((2R,3S,4R,5R)-5-(4-aminopyrrolo[2,1-f][1,2,4]triazin-7-yl)-5-cyano-3,4-dihydroxytetrahydrofuran-2-yl)methyl ((R)-2-((3-cyano-5-fluorobenzyl)oxy)-3-(heptadecyloxy)propyl) hydrogen phosphate], the half-maximal effective concentration (EC50) came to 40 nM in series [1] (read-out: RSV EC50, Table 2a) and 112 nM with SARS-CoV-2. Also, in “MT4 cytotoxicity (CC50)”, the half-maximal cytotoxic concentration (CC50) was determined as 425 nM.

As for `CCCCCCCCCCCCCCCCCOC[C@H](COP(=O)(O)OC[C@H]1O[C@@](C#N)(c2ccc3c(N)ncnn23)[C@H](O)[C@@H]1O)OCc1ccc(C#N)cc1` [Example 36, ((2R,3S,4R,5R)-5-(4-aminopyrrolo[2,1-f][1,2,4]triazin-7-yl)-5-cyano-3,4-dihydroxytetrahydrofuran-2-yl)methyl ((R)-2-((4-cyanobenzyl)oxy)-3-(heptadecyloxy)propyl) hydrogen phosphate], the half-maximal effective concentration (EC50) is 17 nM in series [1] (read-out: RSV EC50, Table 2a) and 404 nM in the series with SARS-CoV-2. Moreover, in the series “MT4 cytotoxicity (CC50)”, it took 530 nM to reach half-maximal cytotoxicity (CC50).

Turning to `CCCCCCCCCCCCCCCCCOC[C@H](COP(=O)(O)OC[C@H]1O[C@@](C#N)(c2ccc3c(N)ncnn23)[C@H](O)[C@@H]1O)OCc1ccc(OC)cc1` [Example 37, ((2R,3S,4R,5R)-5-(4-aminopyrrolo[2,1-f][1,2,4]triazin-7-yl)-5-cyano-3,4-dihydroxytetrahydrofuran-2-yl)methyl ((R)-3-(heptadecyloxy)-2-((4-methoxybenzyl)oxy)propyl) hydrogen phosphate], the concentration for a half-maximal effect (EC50) in series [1] (read-out: RSV EC50, Table 2a) amounted to 39 nM; in the series on SARS-CoV-2, 371 nM. The compound further yielded a CC50 in the series “MT4 cytotoxicity (CC50)” of 1580 nM.

Turning to `CCCCCCCCCCCCCCCCCCOC[C@H](COP(=O)(O)OC[C@H]1O[C@@](C#N)(c2ccc3c(N)ncnn23)[C@H](O)[C@@H]1O)OCc1cccc(C#N)c1` [Example 39, ((2R,3S,4R,5R)-5-(4-aminopyrrolo[2,1-f][1,2,4]triazin-7-yl)-5-cyano-3,4-dihydroxytetrahydrofuran-2-yl)methyl ((R)-2-((3-cyanobenzyl)oxy)-3-(octadecyloxy)propyl) hydrogen phosphate], the EC50 is 27 nM in series [1] (setting [2]); 27 nM in series [1] (read-out: RSV EC50, Table 2a); 284 nM with SARS-CoV-2. It took 348 nM to reach half-maximal cytotoxicity in the series “MT4 cytotoxicity (CC50)” (CC50).

Turning to `CCCCCCCCCCCCCCCCCCOC[C@H](COP(=O)(O)OC[C@H]1O[C@@](C#N)(c2ccc3c(N)ncnn23)[C@H](O)[C@@H]1O)OCc1ccc(C)cc1` [Example 40, ((2R,3S,4R,5R)-5-(4-aminopyrrolo[2,1-f][1,2,4]triazin-7-yl)-5-cyano-3,4-dihydroxytetrahydrofuran-2-yl)methyl ((R)-2-((4-methylbenzyl)oxy)-3-(octadecyloxy)propyl) hydrogen phosphate], the EC50 in series [1] (setting [2]) was determined as 84 nM; in series [1] (read-out: RSV EC50, Table 2a), 84 nM; in the series on SARS-CoV-2, 185 nM. For the same compound, the CC50 in “MT4 cytotoxicity (CC50)” was 2240 nM.

For `CCCCCCCCCCCCCCCCCCOC[C@H](COP(=O)(O)OC[C@H]1O[C@@](C#N)(c2ccc3c(N)ncnn23)[C@H](O)[C@@H]1O)OCc1ccc(Cl)cc1` [Example 41, ((2R,3S,4R,5R)-5-(4-aminopyrrolo[2,1-f][1,2,4]triazin-7-yl)-5-cyano-3,4-dihydroxytetrahydrofuran-2-yl)methyl ((R)-2-((4-chlorobenzyl)oxy)-3-(octadecyloxy)propyl) hydrogen phosphate], the EC50 in series [1] (setting [2]) was determined as 52 nM; in series [1] (read-out: RSV EC50, Table 2a), 52 nM; with SARS-CoV-2 it was 174 nM. Moreover, the CC50 in the series “MT4 cytotoxicity (CC50)” was found to be 2410 nM.

On to `CCCCCCCCCCCCCCCCCCOC[C@H](COP(=O)(O)OC[C@H]1O[C@@](C#N)(c2ccc3c(N)ncnn23)[C@H](O)[C@@H]1O)OCc1ccccc1F` [Example 42, ((2R,3S,4R,5R)-5-(4-aminopyrrolo[2,1-f][1,2,4]triazin-7-yl)-5-cyano-3,4-dihydroxytetrahydrofuran-2-yl)methyl ((R)-2-((2-fluorobenzyl)oxy)-3-(octadecyloxy)propyl) hydrogen phosphate], for which the EC50 in series [1] (setting [2]) was 35 nM; in series [1] (read-out: RSV EC50, Table 2a) it was 36 nM; in the series on SARS-CoV-2, 593 nM. This compound also gave a 50% cytotoxic concentration (CC50) in the series “MT4 cytotoxicity (CC50)” of 2220 nM.

As to `CCCCCCCCCCCCCCCCCCOC[C@H](COP(=O)(O)OC[C@H]1O[C@@](C#N)(c2ccc3c(N)ncnn23)[C@H](O)[C@@H]1O)OCc1c(F)cccc1F` [Example 43, ((2R,3S,4R,5R)-5-(4-aminopyrrolo[2,1-f][1,2,4]triazin-7-yl)-5-cyano-3,4-dihydroxytetrahydrofuran-2-yl)methyl ((R)-2-((2,6-difluorobenzyl)oxy)-3-(octadecyloxy)propyl) hydrogen phosphate], the EC50 in series [1] (setting [2]) is 68 nM; in series [1] (read-out: RSV EC50, Table 2a), 68 nM; in the series on SARS-CoV-2, 139 nM. Moreover, it took 1470 nM to reach half-maximal cytotoxicity in “MT4 cytotoxicity (CC50)” (CC50).

Take `CCCCCCCCCCCCCCCCCCOC[C@H](COP(=O)(O)OC[C@H]1O[C@@](C#N)(c2ccc3c(N)ncnn23)[C@H](O)[C@@H]1O)OC` [Example 44, ((2R,3S,4R,5R)-5-(4-aminopyrrolo[2,1-f][1,2,4]triazin-7-yl)-5-cyano-3,4-dihydroxytetrahydrofuran-2-yl)methyl ((R)-2-methoxy-3-(octadecyloxy)propyl) hydrogen phosphate]: the 50% effective concentration (EC50) in series [1] (setting [2]) turned out to be 53 nM; in series [1] (read-out: RSV EC50, Table 2a), 53 nM; with SARS-CoV-2, 917 nM. Also, the midpoint of cytotoxicity in the series “MT4 cytotoxicity (CC50)”, the CC50, lay at 4000 nM.

Regarding `CCCCCCCCCCCCCCCCCCOC[C@H](COP(=O)(O)OC[C@H]1O[C@@](C#N)(c2ccc3c(N)ncnn23)[C@H](O)[C@@H]1O)OCc1cccc(F)c1` [Example 45, ((2R,3S,4R,5R)-5-(4-aminopyrrolo[2,1-f][1,2,4]triazin-7-yl)-5-cyano-3,4-dihydroxytetrahydrofuran-2-yl)methyl ((R)-2-((3-fluorobenzyl)oxy)-3-(octadecyloxy)propyl) hydrogen phosphate], the 50% effective concentration (EC50) is 69 nM in series [1] (setting [2]); 69 nM in series [1] (read-out: RSV EC50, Table 2a); 311 nM with SARS-CoV-2. Besides, half-maximal cytotoxicity in “MT4 cytotoxicity (CC50)” (CC50) was put at 4420 nM.

As to `CCCCCCCCCCCCCCCCCCOC[C@H](COP(=O)(O)OC[C@H]1O[C@@](C#N)(c2ccc3c(N)ncnn23)[C@H](O)[C@@H]1O)OCC(C)C` [Example 46, ((2R,3S,4R,5R)-5-(4-aminopyrrolo[2,1-f][1,2,4]triazin-7-yl)-5-cyano-3,4-dihydroxytetrahydrofuran-2-yl)methyl ((R)-2-isobutoxy-3-(octadecyloxy)propyl) hydrogen phosphate], the EC50 was found to be 1100 nM in series [1] (setting [2]); 1090 nM in series [1] (read-out: RSV EC50, Table 2a); 2470 nM in the series with SARS-CoV-2. In “MT4 cytotoxicity (CC50)”, this compound had a CC50 of 50000 nM.

On to `CCCCCCCCCCCCCCCCCCOC[C@H](COP(=O)(O)OC[C@H]1O[C@@](C#N)(c2ccc3c(N)ncnn23)[C@H](O)[C@@H]1O)OC(C)C` [Example 47, ((2R,3S,4R,5R)-5-(4-aminopyrrolo[2,1-f][1,2,4]triazin-7-yl)-5-cyano-3,4-dihydroxytetrahydrofuran-2-yl)methyl ((R)-2-isopropoxy-3-(octadecyloxy)propyl) hydrogen phosphate], for which the EC50 in series [1] (setting [2]) stood at 300 nM; in series [1] (read-out: RSV EC50, Table 2a), 297 nM; in the series on SARS-CoV-2, 1080 nM. In “MT4 cytotoxicity (CC50)”, this compound registered a CC50 of 7870 nM.

As to `CCCCCCCCCCCCCCCCCCOC[C@H](COP(=O)(O)OC[C@H]1O[C@@](C#N)(c2ccc3c(N)ncnn23)[C@H](O)[C@@H]1O)OCc1ccc(Cl)c(Cl)c1` [Example 48, ((2R,3S,4R,5R)-5-(4-aminopyrrolo[2,1-f][1,2,4]triazin-7-yl)-5-cyano-3,4-dihydroxytetrahydrofuran-2-yl)methyl ((R)-2-((3,4-dichlorobenzyl)oxy)-3-(octadecyloxy)propyl) hydrogen phosphate], the concentration for a half-maximal effect (EC50) in series [1] (setting [2]) amounted to 78 nM; in series [1] (read-out: RSV EC50, Table 2a), 78 nM; with SARS-CoV-2, 10000 nM. In “MT4 cytotoxicity (CC50)”, this compound came in with a CC50 of 1610 nM.

These data come from US12030904B2 (priority 2020, dated 2024).
